{
  "source": "patent US7067633B2",
  "about": "“Targeting cellular entry, cell survival, and pathogenicity by dynein light chain 1/PIN in human cells” (Board of Regents, The University of Texas System, priority 2003, dated 2006)",
  "key": {"Pak1 [1]": {"test_system": "Pak1", "experiment": "Pak1 kinase activity in cell lysates", "assay_type": "cell-based, human", "conditions": "Ishikawa cells", "from_the_text": "(§1) FIGS. 20A–20L—Pak1 activation confers tamoxifen-resistance. FIG. 20A: Pak1 activation promoted ER-transactivation function."}, "[2]": {"test_system": "ER transactivation (ERE-luc)", "experiment": "ERE-luc transactivation assay", "assay_type": "cell-based, human"}, "DLC1 promoter": {"test_system": "DLC1 promoter", "experiment": "DLC1 promoter luciferase reporter", "assay_type": "cell-based, human", "conditions": "Ishikawa cells, 24 h", "experimental": "FIGS. 21A–21J—Estrogenic signals upregulate DLC1 expression via Pak1 pathway. FIG. 21A: DLC1 upregulation by E2 or Tam. MCF-7/Tam-sen, MCF-7/TAMR1 and Ishikawa cells were treated with E2 (10^−9M) or Tam (10^−9M) for 24 h, and cell lysates were assayed for DLC1 and Pak1 protein expression. FIG. 21B: Upregulation of DLC1 mRNA in MCF-7 cells treated with different doses of E2 for 24 h. FIG. 21C: Effect of different periods of E2 treatment and cycloheximide (CHX) and Actinomycin D (ACTD) treatment on the ability of E2 to upregulate DLC1 mRNA in MCF-7 cells. FIG. 21D: DLC1 mRNA and protein levels in MCF-7/DA-Pak1 cells by Northern and Western blotting. FIG. 21E: DLC1 mRNA and protein levels in MCF-7/DN-Pak1 cells by Northern and Western blotting. FIG. 21F: Downregulation of DLC1 protein expression in MCF-7 cells treated with Pak1-siRNA for 24 h. FIG. 21G: Modulation of DLC1 promoter (1245 bp) luc activity by the expression of wtPak1 or DN-Pak1. MCF-7 cells were transfected with DLC1-luc and transfected with either wtPak1 or Pak1 inhibitor 83-149 and luc activity was measured after 24 h. FIG. 21H: Upregulation of DLC1 promoter luc activity following pak1 induction in MCF-7/DA-Pak 1 cells. FIG. 21I: Downegulation of DLC1 promoter luc activity in MCF-7/DN-pak1 cells. […]"}, "Pak1 [3]": {"test_system": "Pak1", "experiment": "Pak1 protein expression by immunoblot", "assay_type": "cell-based, human", "from_the_text": "as §1"}, "ZR75 cells": {"test_system": "ZR75 cells", "experiment": "Tumorigenicity of stably expressing ZR75 cells in nude mice", "assay_type": "in vivo", "conditions": "5×10^6 cells, no exogenous estradiol", "experimental": "FIGS. 6A–6E—DLC1/PIN overexpression potentiates anchorage-independent growth and promotes tumorigenesis. FIG. 6A: Effect DLC1/PIN expression on anchorage-independent growth of ZR75 cells. The anchorage-independent growth potential of DLC1/PIN-expressing clones was measured by the ability of the cells to form colonies on soft agar. […] Error bars represent standard error of mean. FIG. 6B: Western blot analysis of the expression of DLC1/PIN and Pak1 in lysates from cells derived from MCF10AT model system. […] FIG. 6C: Nude mice were injected with 5×10^6 cells stably expressing pcDNA or wild type DLC1/PIN (clone#2) or mutant DLC1/PIN^del88-89 and tumor growth was measured at weekly intervals. […] Tumor growth was only observed in cells expressing wild type DLC1/PIN but not detected in mutant expressing cells. FIG. 6E: Morphology of tumor and expression of T7-DLC1/PIN in DLC1/PIN-induced tumors as measured by H&E and anti T7 staining respectively.\nCell proliferation, soft-agar, and tumorigenicity assays. […] For xenograft studies, 5×10^6 cells were implanted subcutaneously into mammary fat-pads of 10 nude mice, as previously described (Bagheri et al., 2001), and allowed to grow for 20 weeks; tumor size was then measured. […]"}},
  "data": [
    {"compound": "CC/C(=C(\\c1ccccc1)c1ccc(OCCN(C)C)cc1)c1ccccc1", "note": "[tamoxifen]", "values": [
      {"measurement": "Pak1 kinase activity", "setting": "Pak1 [1]", "result": "upregulated"},
      {"measurement": "inhibitory effects on ERE-luc activity", "setting": "[2]; Ishikawa cells, both DLC1 and Pak1 knocked down", "result": "restored the inhibitory effects"},
      {"measurement": "Pak1-mediated ERE-stimulation", "setting": "[2]; MCF-7/DA-Pak1 cells", "result": "not inhibited"},
      {"measurement": "DLC1 promoter activity", "setting": "DLC1 promoter", "result": "stimulated"},
      {"measurement": "Pak1 protein expression", "setting": "Pak1 [3]; Ishikawa cells, long-term treatment", "result": "increase"},
      {"measurement": "levels of Pak1 protein", "setting": "Pak1 [3]; MCF-7 cells", "result": "no effect"}
    ]},
    {"compound": "DLC1/PIN^del 88-89: DLC1/PIN mutant in which Ser88 and amino acid 89 were deleted", "values": [
      {"measurement": "tumorigenic potential", "setting": "ZR75 cells", "result": "did not exhibited any tumorigenic potential"}
    ]}
  ]
}
